Experimental data taken from patent US9850293B2, “Targeting trastuzumab-resistant HER2+ breast cancer with a HER3-targeting nanoparticle” (priority 2014, dated 2017).

Columns and labels:
MDA-MB-435 cells = assay: Intracellular translocation of HerDox and Dox (microscopy); assay type: cell-based, human
Procedure: Live (unfixed) cells were imaged by brightfield and fluorescence microscopy.
Live (unfixed) cells were imaged by DIC and confocal fluorescence microscopy.
FIG. 15 illustrates HerDox trafficking in breast cancer cells. Cells incubated with HerDox at 37° C. were fixed at the indicated time points and processed for immunofluorescence using an antibody against HerPBK10. Images were captured using confocal microscopy under fluorescence and brightfield. n, nucleus; Bar, ˜8 microns.

HER2+ tumors = assay: HerDox and Dox biodistribution (Dox fluorescence imaging); settings: tissues harvested ~3 h after injection
Excerpt: FIG. 11 (A) depicts imaging of live mice after IV delivery of HerDox. Tumors are indicated by arrows.

JIMT-1 tumors = assay: Trastuzumab-resistant tumor growth in vivo; parameters: species or system mouse; settings: 0.004 mg Dox/kg/injection, twice-weekly IV
Procedure: (§1) Tumor volumes were measured by calipers. Day 0 corresponds to first day of treatment. N=10 tumors per treatment.
as §1
(§2) The efficacy of HerDox was also examined on a cell line with pre-existing resistance.
(§3) The contribution of HER3 to targeted toxicity was evaluated by assessing whether pre-adsorbing HerDox with a peptide comprising the ligand-binding domain of HER3 blocked cytotoxicity.

MDA-MB-231 (HER2−) = assay: Targeted toxicity, cell survival by MTT assay; assay type: cell-based, human; settings: 0.5 μM with respect to Dox; HerPBK10 0.1 μM; day 3
Procedure: (§4) FIG. 7 illustrates targeted toxicity. […] Cell titer was determined by metabolic (i.e. MTT) assay. FIG. 7 upper panel illustrates the effect of HerDox on MDA-MB-231 (HER2−) and MDA-MB-435 (HER2+) cell survival. Relative surviving cell numbers are represented as a % of corresponding untreated cells. […] Relative survival (as % of untreated cells) is shown for Day 3 of treatment.
(§5) N=3. […] Bar, about 4 μm. […] (E) compares HerDox and Dox on off-target tissue. […] Green fluorescence in nuclei indicates apoptosis (positive TUNEL stain).
(§6) By three days, HerDox reduced HER2+ cell numbers by over 75% whereas HER2− cell survival was unaffected (FIG. 7). […] These findings emphasize the importance of targeting by showing that the untargeted drug affects nontarget (i.e. HER2−) cells. […] To test receptor targeting, the inventors used free heregulin ligand (Her or eHRG) as a competitive inhibitor. […] As a final in vitro challenge, the inventors tested whether HerDox induces toxicity specifically to HER2+ cells in a mixed culture of HER2+ and HER2− breast cancer cells. To do this, the inventors produced a HER2− cell line tagged with green fluorescent protein (GFP) for cell identification in the mixed culture (FIG. 9-A). […] Altogether, these findings indicate that HerDox has the capacity to preferentially target toxicity to HER2+ cells. […] In serum-containing media, no such loss from HerDox is detectable. […] Co-migration of HerPBK10 bands further verified that the conjugates remained intact in the cell media.

JIMT-1 cell line = assay: Tumor cell killing in culture, pre-existing resistance; assay type: cell-based, human; settings: broad concentration range
Procedure: N=3. *, p<0.05 compared to parental. […] N=3. […] Treatments were compared to mock (saline)-treatment. […] N=3. *, p<0.05 compared to parental. […] N=3.
as §2, §3

MDA-MB-435 (HER2+) = assay: Targeted toxicity, cell survival by MTT assay; assay type: cell-based, human; settings: Dox 0.5 μM; HerPBK10 0.1 μM; day 3
Procedure: as §4
FIG. 8 illustrates receptor specificity. MDA-MB-435 (HER2+) cells were incubated with free ligand (eHRG) at 10× molar excess of HerDox for one hour at 4° C. Media was aspirated to remove free eHRG and fresh media containing HerDox (0.5 μM) was added to cells. Cell survival was measured by MTT assay and represented as a % of relative untreated cell numbers.
as §5, §6

[1] = tested on: HER2+ tumors (MDA-MB-435); assay: In vivo tumor toxicity (tumor growth); parameters: species or system mouse
[2] = Off-target toxicity in treated mice (weight, heart, liver)
Procedure: Relative cell survival (as % of untreated cells) on day 3 of treatment. (+Her), pre-incubation of MDA-MB-435 cells with receptor-blocking ligand (recombinant heregulin) before receiving HerDox. N=3. […] Tissues were harvested from independently injected mice euthanized at indicated time points after injection and fluorescence intensity/tissue acquired using a multimode imager. […] Bar, about 4 μm. […] Day 0=3 days before tail vein injections (mice received daily injections for 7 days). […] Day 0=3 days before tail vein injections (mice received daily injections for 7 days). […] Micrographs (20× magnification) in (E) also show representative H&E stained specimens of myocardia and immunofluorescent specimens of livers from treated mice. Green fluorescence in nuclei indicates apoptosis (positive TUNEL stain).

[3] = T-DM1; untargeted Dox in patients; cited from earlier work
TSPO = TSPO (Homo sapiens, UniProt P30536); assay: S2Ga binding to recombinant TSPO (ultrafiltration, spectra); settings: 1 μM
Chain of TSPO (P30536 whole entry): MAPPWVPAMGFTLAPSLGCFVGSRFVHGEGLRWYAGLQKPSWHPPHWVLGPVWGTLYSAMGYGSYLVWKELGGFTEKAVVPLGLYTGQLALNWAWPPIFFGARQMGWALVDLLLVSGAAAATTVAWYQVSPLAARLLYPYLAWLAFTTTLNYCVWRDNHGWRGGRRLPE
Procedure: (A) illustrates that S2Ga interacts with TSPO. […] Retentates were evaluated for the presence of protein-bound corrole by measuring the absorbance and fluorescence spectra. Where indicated, PK11195 was used as a competitive inhibitor for the porphyrin binding site on TSPO. (B) further illustrates that S2Ga interacts with TSPO. […] Retentates were evaluated for the presence of protein-bound corrole by measuring the absorbance and fluorescence spectra. Where indicated, PK11195 was used as a competitive inhibitor for the porphyrin binding site on TSPO. […] MDA-MB-435 cells were transfected with a plasmid expressing exogenous TSPO 24 hours before cells were treated with HerGa and examined for HerGa-mediated mitochondrial disruption, evidenced by reduced red fluorescent dye accumulation in mitochondria and accumulated green fluorescence in the cytoplasm.
TSPO translocates porphyrins and other metabolites into mitochondria for processing as well as interacts with components of the mitochondrial permeability transition pore complex, and is critical for cellular homeostasis, as knock-outs of TSPO are embryonic lethal in mice.

human HER2+ tumor cells = assay: HerMn toxicity, crystal violet survival; assay type: cell-based; settings: 24 hours
Procedure: (§7) Each cell line received the indicated concentration of HerMn or S2Mn and was assessed for survival 24 hours later via crystal violet (CV) stain. N=3 per conc, from 3 separate experiments.

human HER2− tumor cells = assay: HerMn toxicity, crystal violet survival; assay type: cell-based; settings: 24 hours
Procedure: as §7

SOD1 = tested on: SOD1
Excerpt: An in vitro assay measuring superoxide production from XOD−/+SOD.

**Q.** With COc1cccc2c1C(=O)c1c(O)c3c(c(O)c1C2=O)C[C@@](O)(C(=O)CO)C[C@@H]3O[C@H]1C[C@H](N)[C@H](O)[C@H](C)O1 [Dox, doxorubicin, reference compound] as the compound, how does the “intracellular location of Dox fluorescence” value (MDA-MB-435 cells; 0 min of uptake, 0.5 μM) read?
**A.** Its value is “already found inside the cell at the nuclear periphery”.

**Q.** And the “intranuclear pattern of Dox in live cells” value (MDA-MB-435 cells; confocal, live cells)?
**A.** The value was “accumulates in the cell nucleus”.

**Q.** And the fluorescence in kidneys (HER2+ tumors)?
**A.** The fluorescence in kidneys was “detectable fluorescence”.

**Q.** And the fluorescence in liver (HER2+ tumors)?
**A.** The fluorescence in liver was “detectable fluorescence”.

**Q.** And the “fluorescence in other tissues (heart, spleen, lungs, skeletal muscle)” value (HER2+ tumors)?
**A.** The value was “Lower levels of fluorescence were also detectable in the lungs and skeletal muscle”.

**Q.** And the fluorescence in tumors (HER2+ tumors)?
**A.** The fluorescence in tumors was “detectable fluorescence”.

**Q.** And the “effect on JIMT-1 tumor growth” value (JIMT-1 tumors)?
**A.** Its value is “only slight”.

**Q.** And the “effect on HER2− cell survival” value (MDA-MB-231 (HER2−))?
**A.** Its value is “reduced both HER2+ and HER2− cells by the same order of magnitude”.

**Q.** What about the “response of JIMT-1 cells” value (JIMT-1 cell line) of the same compound?
**A.** Its value is “only partially responsive”.

**Q.** What about the “effect on HER2+ cell survival” value (MDA-MB-435 (HER2+)) of the same compound?
**A.** Its value is “reduced both HER2+ and HER2− cells by the same order of magnitude”.

**Q.** What about the “effect on tumor growth” value ([1]; 0.004 mg/kg with respect to Dox, daily tail vein injections for 7 days) of the same compound?
**A.** Its value is “slows tumor growth”.

**Q.** And the “dose eliciting tumor growth ablation / tumor cell death” value ([1]; mice, dose of Dox)?
**A.** Its value is “more than 0.04 mg/kg”.

**Q.** And the heart gross appearance ([2]; 25 days following injections)?
**A.** The heart gross appearance was “slightly enlarged and dilated”.

**Q.** What about the “myocardium morphology (histochemistry)” value ([2]; 25 days following injections) of the same compound?
**A.** Its value is “focal degeneration, myofibrillar loss, increased cytosoplasmic vacuolization, and nuclear condensation or dissolution”.

**Q.** What about the “cardiac function (echocardiograms)” value ([2]; mouse, in vivo) of the same compound?
**A.** Its value is “modest to marked reductions in stroke volume, cardiac output, and left ventricular internal dimension and volume”.

**Q.** What about the “liver and heart toxicity” value ([2]; systemic delivery in vivo) of the same compound?
**A.** The value was “causing liver tissue and myocardial damage”.

**Q.** Which therapeutic dose required [3] does the source give for T-DM1 here?
**A.** Its therapeutic dose required is “about 3.6 mg/kg”.

**Q.** What does the source list for sulfonated gallium(III) corrole [S2Ga]?
**A.** binding to TSPO with PK11195 (TSPO): competitively inhibited by PK11195; binding to TSPO (TSPO; ~20 min, room temperature): directly binds

**Q.** With “sulfonated manganese(III) corrole [S2Mn]” as the compound, how does the “toxicity to HER2+ tumor cells” value (human HER2+ tumor cells) read?
**A.** Its value is “no effect on cell survival”.

**Q.** What about the “toxicity to HER2− tumor cells” value (human HER2− tumor cells) of the same compound?
**A.** The value was “no effect on cell survival”.

**Q.** Which “inhibition of SOD1” value (SOD1) does the source give for “sulfonated non-metallated free-base corrole [S2FB]” here?
**A.** The value was “inhibit SOD activity”.

**Q.** What about the “reduction of SOD activity” value (SOD1; 1 μM) of the same compound?
**A.** The value was “about one-third”.
